Reference: the supplement of paper PMC9763283

Columns and labels:
Assay in all cases: area under growth-rate inhibition curve (AUC GRI) (dimensionless (GR-based AUC)); higher = less growth inhibition
Conditions in all cases: exposure time: 72 h; concentrations: 0.1, 1, 10 uM
BT474-P = test system: BT474-P
Procedure, shortened: (§1)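 Nuclear counts from Hoechst 33342- or DAPI-stained images were used to estimate the area under the growth-rate inhibition curve, with growth corrected by reference to untreated and DMSO-treated plates and starting plates. The six breast cancer cell line models, comprising two triple-negative lines and parental and drug-combination-resistant HER2+ lines, were treated with compound at 0.1, 1 or 10 µM for 72 h. Data came from 2 biological replicates, using Day 0 and Day 3 plates.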

SKBR3-LTR = test system: SKBR3-LTR
Procedure, shortened: as §1

SKBR3-P = test system: SKBR3-P
Procedure, shortened: as §1

BT474-LTR = test system: BT474-LTR
Procedure, shortened: as §1

MDA-MB-468 = test system: MDA-MB-468
Procedure, shortened: as §1

MDA-MB-231 = test system: MDA-MB-231
Procedure, shortened: as §1

| SMILES | area under growth-rate inhibition curve (BT474-P) | area under growth-rate inhibition curve (SKBR3-LTR) | area under growth-rate inhibition curve (SKBR3-P) | area under growth-rate inhibition curve (BT474-LTR) | area under growth-rate inhibition curve (MDA-MB-468) | area under growth-rate inhibition curve (MDA-MB-231) |
| --- | --- | --- | --- | --- | --- | --- |
| Cc1c(C(=O)NN2CCCCC2)nn(-c2ccc(Cl)cc2Cl)c1-c1ccc(Cl)cc1 [Rimonabant] | 0.979 | 1.04 | 0.953 | 1.07 | 0.987 | 1 |
| CC(NCCc1ccc(O)cc1)C(O)c1ccc(O)cc1.[Cl-].[H+] (stereo unspecified) [Ritodrine HCl] | 1.07 | 1.11 | 1.02 | 1.1 | 1.01 | 0.975 |
| CCN(C)C(=O)Oc1cccc(C(C)N(C)C)c1.O=C(O)C(O)C(O)C(=O)O (stereo unspecified) [Rivastigmine Tartrate] | 1.06 | 1.06 | 1.02 | 1.07 | 1.04 | 1.03 |
| C=CC[N+]1(C2CC3C4CCC5CC(O)C(N6CCOCC6)CC5(C)C4CCC3(C)C2OC(C)=O)CCCC1.[Br-] (stereo unspecified) [Rocuronium Bromide] | 1.07 | 1.05 | 1.03 | 1.1 | 1.03 | 1.02 |
| O=C(Nc1c(Cl)cncc1Cl)c1ccc(OC(F)F)c(OCC2CC2)c1 [Roflumilast] | 1.03 | 1.07 | 1.01 | 1.05 | 1.04 | 0.966 |
| CCCN(CCC)CCc1cccc2c1CC(=O)N2 [Ropinirole] | 0.994 | 1.05 | 1.02 | 1.05 | 1.06 | 1.03 |
| CCCN(CCc1cccs1)[C@H]1CCc2c(O)cccc2C1 [Rotigotine] | 1.05 | 1.08 | 0.984 | 1.08 | 0.992 | 1.03 |
| COc1cc2c(cc1OC)C1Cc3ccc(OC)c(OC)c3CN1CC2 (stereo unspecified) [Rotundine] | 1.03 | 1.04 | 0.992 | 1.11 | 1.02 | 0.997 |
| CC(=O)OCC(=O)NCCCOc1cccc(CN2CCCCC2)c1.[Cl-].[H+] [Roxatidine Acetate HCl] | 1.04 | 1.04 | 0.991 | 1.07 | 1.02 | 1.03 |
| Cc1cncc(CN2CCC(=C3c4ccc(Cl)cc4CCc4cccnc43)CC2)c1.O=C(O)/C=C/C(=O)O [Rupatadine Fumarate] | 0.974 | 1.03 | 0.966 | 1.05 | 0.972 | 1.05 |
| Cc1nn(-c2ccccc2)c(C)c1C=NN1CCN(Cc2ccccc2)CC1 [SANT-1] | 0.98 | 1.05 | 1.04 | 1.08 | 1.02 | 0.992 |
| O=C(O)c1ccc2ccccc2c1O.OCc1cc(C(O)CNCCCCCCOCCCCc2ccccc2)ccc1O (stereo unspecified) [Salmeterol Xinafoate] | 0.905 | 0.993 | 0.95 | 0.877 | 0.875 | 0.832 |
| CN1C2CC(O)CC1C1OC12 (stereo unspecified) [Scopine] | 1.05 | 1.05 | 1.03 | 1.08 | 1.05 | 1.07 |
| Br.CN1C2CC(OC(=O)C(CO)c3ccccc3)CC1C1OC12 (stereo unspecified) [Scopolamine HBr] | 1.05 | 1.09 | 1.01 | 1.08 | 1.04 | 1.03 |
| CN[C@@H]1CC[C@@H](c2ccc(Cl)c(Cl)c2)c2ccccc21.[Cl-].[H+] [Sertraline HCl] | 0.935 | 0.981 | 0.963 | 0.972 | 0.907 | 0.918 |
| C[C@H](Cc1cc2c(c(C(N)=O)c1)N(CCCO)CC2)NCCOc1ccccc1OCC(F)(F)F [Silodosin] | 1.06 | 1.1 | 1.03 | 1.1 | 1.05 | 1.04 |
| Cc1cc2c(cc1CC(=O)c1sccc1S(=O)(=O)[N-]c1onc(C)c1Cl)OCO2.[Na+] [Sitaxentan sodium] | 1.06 | 1.07 | 1.04 | 1.08 | 1.04 | 1.04 |
| CCOc1ccc(Cc2cc([C@@H]3O[C@H](SC)[C@@H](O)[C@H](O)[C@H]3O)ccc2Cl)cc1 [Sotagliflozin (LX4211)] | 1.02 | 1.1 | 1.02 | 1.06 | 0.996 | 1.01 |
| CC(C)NCC(O)c1ccc(NS(C)(=O)=O)cc1.[Cl-].[H+] (stereo unspecified) [Sotalol] | 1.05 | 1.07 | 1.03 | 1.09 | 1.05 | 1.03 |
| CNS(=O)(=O)Cc1ccc2[nH]cc(CCN(C)C)c2c1.O=C(O)CCC(=O)O [Sumatriptan Succinate] | 1.05 | 1.06 | 1.04 | 1.1 | 1.03 | 1.02 |
| Cc1ccc(-n2nccn2)c(C(=O)N2CCN(c3nc4cc(Cl)ccc4o3)CCC2C)c1 (stereo unspecified) [Suvorexant (MK-4305)] | 1.02 | 1.04 | 0.995 | 1.05 | 0.955 | 1.02 |
| CNCC(O)c1ccc(O)cc1.Cl (stereo unspecified) [Synephrine HCl] | 1.05 | 1.07 | 1.01 | 1.11 | 1.05 | 0.993 |
| CNCC(O)c1ccc(O)cc1 (stereo unspecified) [Synephrine] | 1.05 | 1.07 | 1.03 | 1.06 | 1.05 | 0.993 |
| CC/C(=C(\c1ccccc1)c1ccc(OCCN(C)C)cc1)c1ccccc1.O=C(O)CC(O)(CC(=O)O)C(=O)O [Tamoxifen Citrate] | 0.851 | 0.982 | 0.938 | 0.896 | 0.952 | 0.958 |
| CCC(c1cccc(O)c1)C(C)CN(C)C (stereo unspecified) [Tapentadol] | 1.01 | 1 | 1.01 | 1.01 | 1 | 0.986 |
| COc1cc2nc(N3CCN(C(=O)C4CCCO4)CC3)nc(N)c2cc1OC.O.[Cl-].[H+] (stereo unspecified) [Terazosin HCl] | 1.02 | 1.1 | 1.03 | 1.09 | 1.04 | 1.02 |
